The values that follow are results of earlier work, collected in US12247053B2 (priority 2018, dated 2025).

This data set concerns American isolates of H3N2.

Turning to `NC12CC3CC(CC(C3)C1)C2` [amantadine], the measured resistance is reported as 91%.

`CC(N)C12CC3CC(CC(C3)C1)C2` (centres unmarked) [rimantadine]: the measured resistance is recorded as 91%.
